Patent US20100215710A1, “Beta-2 Adrenergic Receptor Agonists and Antagonists and Modulation of Wound Healing” (The Regents of the University of California, priority 2005, published 2010)

Key:
[1] = cited from earlier work
human keratinocytes [2] = assay: Single cell migration assay, keratinocytes (clenbuterol, OA); format: cell-based; details: 1 μM clenbuterol, one-hour period, vs control
Protocol: All single cell migration assays were performed on cells plated on glass cover-slips inserted into 35 mm plastic dishes (MatTek Corp., Ashland, Mass.) that had been coated for 1 hour at 37° C. with 60 μg/ml collagen L Cells were plated onto the collagen-coated glass cover-slips at a density of 250 cells/mm^2 for 3-6 hours at 37° C. Cells were either untreated (control), pre-treated with 10 nM okadaic acid (OA) (10 nM) for 45 minutes prior to the addition of OA (10 nM) and clenbuterol (1 μM) (OA/Clen) or treated with either OA or clenbuterol (1 μM) alone at time 0. The dishes were inserted into metal plates, maintained at 37° C., on inverted Nikon Diaphot microscopes to monitor single cell migration. Time-lapse images of the cell migratory response were digitally captured every 10 minutes over a one-hour period by Q-Imaging Retiga-EX cameras (Burnaby, BC, Canada) controlled by a custom automation written in Improvision Open Lab software (Lexington, Mass.) on a Macintosh G4. After each cell's center of mass was tracked using the Open Lab software, migration speed and distance were calculated and imported to Excel (Microsoft Corporation, Redmond, Wash.). Significance was taken as p<0.01, using Student's t test (unpaired) to compare the means of the control and β-AR agonist-treated cell populations.
Keratinocytes were plated onto collagen-coated glass cover-slips at a concentration of 250 cells/mm^2 in KGM for 3-6 hours at 37° C. The migration of each single cell was monitored over a one-hour period, and the results were analyzed in excel as described. The speed of migration ([…]) is represented graphically in FIG. 1 Panel C, control n=57, clenbuterol n=57, OA n=60, OA-clenbuterol n=44. The data are representative of three independent experiments with at least two different keratinocyte strains. * P<0.01 between β-AR agonist and controls; #P<0.01 between OA-clenbuterol and clenbuterol alone.

human keratinocytes [3] = assay: Scratch assay, confluent keratinocyte cultures (clenbuterol); format: cell-based; details: 1 μM clenbuterol
Protocol: Human keratinocytes were isolated from neonatal foreskins as reported previously (Isseroff et al. (1987) Conversion of linoleic acid into arachidonic acid by cultured murine and human keratinocytes. J Lipid Res 28:1342-1349) and cultured using a modification of the method of Rheinwald and Green (Rheinwald and Green (1975) Serial cultivation of strains of human epidermal keratinocytes: the formation of keratinizing colonies from single cells. Cell 6:331-343). […]
Cells were grown to confluence on cover-slips (Fisher Scientific, Pittsburgh, Pa.) coated with 60 μg/ml Collagen I (Vitrogen 100, Collagen Corp., Palo Alto, Calif.). […] The area of the wound was determined using NIH Image 1.6 and the percent wound healing calculated by dividing the area of the wound at time X by the area of the wound at time 0 and multiplying by 100. […]
Keratinocytes were grown to confluence on collagen-coated glass cover-slips in the absence (control) or presence of 1 μM clenbuterol. […] Representative photographs of images at time 40 hours are shown in FIG. 1 Panel A. The percent wound healing was calculated and is represented graphically in FIG. 1 Panel B; control wounds are indicated by circles, clenbuterol treated by squares. […]

human keratinocytes [4] = assay: Scratch wounding of confluent keratinocytes with epinephrine; format: cell-based
From the text: (§1) Since burn wounded patients have elevated levels of the circulating β2-AR activator epinephrine, whether blockade of β2-ARs increases keratinocyte migration and has the potential to accelerate burn wound re-epithelialization was examined.

[5] = system: cultured human keratinocytes; assay: Keratinocyte migratory speed with epinephrine at post-burn levels; format: cell-based
From the text: as §1

[6] = system: corneal epithelial wounds; assay: Corneal epithelial wound healing in vivo in β2-AR +/+ or −/− mice
Protocol: Using male β2-AR +/+ or β2-AR −/− mice, 2 mm diameter circular corneal epithelial wounds (OD) were created using a crescent blade. The corneas were treated topically with Balanced Salt Solution (BSS), BSS with 1% isoproterenol, or BSS with 0.5% timolol, and the wound healing was monitored stereomicroscopically using fluorescein.

human skin burn wounds = assay: Ex vivo model of burn wound healing in excised human skin; format: cell-based; details: for burn wound re-epithelialization status: 10 μm, day ten after the burn wound, control did not fully re-epithelialize
Protocol: An ex vivo model of burn wound healing was developed. A heated brass rod was applied to excised human skin, obtained and maintained basically as described above in Example 1. Burn wounds were treated with β-AR agonist (10 μm isoproterenol) or β-AR antagonist (10 μm timolol). […] Images were taken at 40× magnification.

human skin wounds = assay: Human skin wound healing assay (explant culture, 10% serum); format: cell-based; details: isoproterenol-treated wounds
From the text: A wound healing model developed by Kratz (Kratz (1998) Modeling of wound healing processes in human skin using tissue culture. Microsc Res Tech 42:345-350) was adapted. Normal human skin was obtained from routine breast reductions or abdominoplasties under an approved exemption granted by the Internal Review Board at University of California, Davis. Under sterile conditions, excess subcutaneous fat was trimmed from 6″×3″ sections of skin prior to stretching and pinning onto sterile cork board. A 3 mm punch (Sklar Instruments, West Chester, Pa.) was used to make wounds in the epidermis and into the superficial dermis and the 3 mm discs of skin were excised using sterile scissors. 6 mm skin discs, with the 3 mm epidermal wound in the center, were excised using a 6 mm biopsy punch (SMS Inc., Columbia, Md.). […] Re-epithelialization was determined using light microscopy. […] Measuring the linear distance covered by new epithelium and dividing that by the linear distance between the original wound edges determined the percentage of re-epithelialization. […]
Wounds, 3 mm in diameter, were generated in excised human skin, cultured in the presence or absence of 10 μM isoproterenol, fixed and stained every day after wounding as described. Re-epithelialization was determined using light microscopy. […]

β2-AR = assay: Western blot of β2-AR in scratch wounded keratinocyte cultures; format: cell-based, human; details: addition of timolol
From the text: as §1

## CC(C)(C)NCC(O)COc1cccc2c1CC(O)C(O)C2 (stereo not shown) [Nadolol, nadolol]
[1]
  lipid solubility: low

## CC(C)(C)NCC(O)c1cc(Cl)c(N)c(Cl)c1 (stereo not shown) [clenbuterol]
Human keratinocytes [2]
  reduction of keratinocyte migratory speed: 45%
Human keratinocytes [3]
  time required for scratch wounds to heal: significantly increases
Human keratinocytes [3]; 40 hours after wounding, control wounds completely healed
  percent wound healing of scratch wounds: 40%

## CNC[C@H](O)c1ccc(O)c(O)c1 [epinephrine]
Human keratinocytes [4]; epinephrine pretreatment
  reduction of scratch wound healing: 70%
[5]; epinephrine 10 nM
  decrease in keratinocyte migratory speed: 75%

## CC(C)NCC(O)c1ccc(O)c(O)c1 (stereo not shown) [isoproterenol]
[6]; β2-AR +/+ mice, topical BSS with 1% isoproterenol
  delay of wound healing (rate, linear phase): ~80%
[6]; β2-AR −/− mice, topical BSS with 1% isoproterenol
  delay of wound healing: but not in β2-AR −/− mice
Human skin burn wounds; 10 μm isoproterenol, day ten after the burn
  delay of re-epithelialization: 14%
Human skin burn wounds
  burn wound re-epithelialization status: did not fully re-epithelialize
Human skin wounds
  re-epithelialization of human skin wounds: significant delay

## CC(C)(C)NC[C@H](O)COc1nsnc1N1CCOCC1 [timolol]
Human keratinocytes [4]; timolol added to epinephrine
  acceleration of scratch wound healing: 20%
  effect on epinephrine-reduced scratch wound healing: reversed the effects of epinephrine
β2-AR
  β2-AR downregulation one hour after the scratch: delayed
[6]; β2-AR +/+ mice, topical BSS with 0.5% timolol
  rate of healing: increased the rate of healing significantly
[6]; β2-AR −/− mice, topical BSS with 0.5% timolol
  increase in rate of healing: but not in β2-AR −/− mice
Human skin burn wounds; 10 μm timolol, day ten after the burn
  enhancement of re-epithelialization: 37%
Human skin burn wounds
  burn wound re-epithelialization status: fully re-epithelialized
[5]; timolol 10 μM added to epinephrine 10 nM
  migratory speed of epinephrine-treated keratinocytes: restored the migratory speed to control levels
